Here are results for seven molecules from patent publication US5498618A, “4-amino-N-(4-methyl-4-piperidinyl)-2-methoxybenzamides for treating smooth muscle contraction disorders” (Janssen Pharmaceutica N.V., priority 1993, dated 1996).

The structures appear in SMILES notation.

One assay has as its target T1, dopamine-D2 receptor (Rattus norvegicus, UniProt P61169).
T1 construct: Cell membrane fractions, prepared from tissue homogenates or cells; from tissue
The experiment in a line: dopamine-D2 receptor binding, [3H]haloperidol displacement. The following applies: read-out: IC50 (inhibition of [3H]-ligand binding) (converted). The method, then: (§1) Cell membrane fractions, prepared from tissue homogenates or cells, were incubated with a radioactive [^3 H]-labelled substance (described hereinafter as the [^3 H]-ligand) known to bind specifically to a particular receptor, thus labeling this receptor. The [^3 H]-ligand used for each receptor site is mentioned in Table 1, as are the references wherein the experimental conditions of these tests are described.
(§2) After the incubation, the labelled membranes were harvested on glass fibre filters and rinsed twice with 5 ml of a cold buffer solution to remove non-bound [^3 H]-ligands. Subsequently the glass fibre filters, with the harvested membranes, were placed in plastic mini-vials and 2.0 ml of Ultima Gold™ scintillation cocktail was added. Vials were vigorously shaken and kept at 4° C. for 24 h. Thereafter radioactivity was counted in a liquid scintillation spectrometer. Said radioactivity is proportional to the membrane labelling by the [^3 H]-ligand.
(§3) Specific membrane labelling by the [^3 H]-ligand was distinguished from the non-specific membrane labelling by selectively inhibiting the labelling of the receptor site by another substance (unlabelled) known to compete with the [^3 H]-ligand for binding to said receptor site. The remaining non-specific labelling was substracted from all assays concerning said receptor site.
(§4) During the incubation the test compounds were able to compete with the [^3 H]-ligand for binding with the receptor. Subsequently the membranes were harvested and the radioactivity was measured as described above.
(§5) A compound having a high binding affinity is capable of displacing the [^3 H]-ligand from binding to the receptor, and consequently the radioactivity of the harvested membranes will be diminished. […] The values presented in table 1 are IC50 -values, i.e. the molar concentrations at which the test compound was able to inhibit 50% of the [^3 H]-ligand-binding
(§6) In the table "5HT2, 5HT1A, 5HT1B, 5HT1D, 5HT1C, 5HT3 " all refer to different types of serotonin receptor sites; "α2 " refers to the α2 -adrenergic receptor site; "H1 " refers to the histamine-H1 receptor site; and "D2 " refers to the dopamine-D2 -receptor site.

Another assay concerns the target T2, histamine-H1 receptor (Cavia porcellus, UniProt P31389).
T2 construct: Cell membrane fractions, prepared from tissue homogenates or cells; from tissue
The experiment in a line: histamine-H1 receptor binding, [3H]pyrilamine displacement. The following applies: read-out: IC50 (inhibition of [3H]-ligand binding) (converted). The procedure:
as §1, §2, §3, §4, §5, §6
(h) Chang et al., Eur. J. Pharmacol., 48, 463-464, 1978; Laduron et al.,

Assay [1] relates to serotonin-induced contraction of caudal artery of the rat. As to the kind of experiment: Antagonistic activity on the effect of serotonin on the caudal artery of the rat. Format: cell-based. The following applies: 5 min; rat caudal artery strips; serotonin 40 ng/ml; 5 minutes after adding the drug; read-out: ED50 (minimal concentration which reduces the amplitude of the contractions by at least 50% of its normal value). The procedure:
Antagonistic activity on the effect of serotonin on the caudal artery of the rat.
Caudal arteries from the fasted male rats (210-235 g) were used in the test. Two helical strips having a length of 5-6 cm and a width of 2 mm were obtained from each artery and mounted vertically in a 100 ml organ bath containing an oxygenated Krebs-Henseleit solution. Submaximal contractions of the arterial strips were produced by adding single doses of serotonin (40 ng/ml) to the organ bath for 2 minutes with each time an interval of 10 minutes. The amplitude of the contractions was measured before and 5 minutes after adding the drug. After washing out, the agonist was added again three times in order to see whether the contraction was restored and normalized. […] The ED50 -values are the minimal concentrations of the concerned drugs which reduce the amplitude of the contractions by at least 50% of its normal value.

A further assay addresses T3, 5HT3 serotonin receptor (Mus musculus, UniProt P23979).
T3 construct: Cell membrane fractions, prepared from tissue homogenates or cells; endogenous in cells
T3 sequence (P23979 24-489): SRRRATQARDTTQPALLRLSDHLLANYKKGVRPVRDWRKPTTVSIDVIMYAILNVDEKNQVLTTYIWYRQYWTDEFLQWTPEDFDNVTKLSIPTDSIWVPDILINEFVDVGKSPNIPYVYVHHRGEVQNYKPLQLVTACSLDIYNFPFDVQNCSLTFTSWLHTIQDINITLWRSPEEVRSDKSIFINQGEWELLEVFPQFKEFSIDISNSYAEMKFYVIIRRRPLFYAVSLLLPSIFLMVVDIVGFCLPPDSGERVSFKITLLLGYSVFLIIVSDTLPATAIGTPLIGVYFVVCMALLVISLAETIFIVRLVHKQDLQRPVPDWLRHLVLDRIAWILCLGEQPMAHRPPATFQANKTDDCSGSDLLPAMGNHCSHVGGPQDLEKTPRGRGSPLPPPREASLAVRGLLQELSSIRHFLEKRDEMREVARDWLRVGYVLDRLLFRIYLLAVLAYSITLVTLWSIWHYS
As to the kind of experiment: 5HT3 receptor binding, [3H]GR65630 displacement. The following applies: read-out: IC50 (inhibition of [3H]-ligand binding) (converted). The procedure: as §1, §2, §3, §4, §5, §6
(f) Hoyer & Neijt, Eur. J. Pharmacol., 143, 191, 1987;

A further assay has as its target T4, 5HT1A serotonin receptor (Homo sapiens, UniProt P08908).
T4 construct: expressed in transfected cells
T4 sequence (P08908 1-422): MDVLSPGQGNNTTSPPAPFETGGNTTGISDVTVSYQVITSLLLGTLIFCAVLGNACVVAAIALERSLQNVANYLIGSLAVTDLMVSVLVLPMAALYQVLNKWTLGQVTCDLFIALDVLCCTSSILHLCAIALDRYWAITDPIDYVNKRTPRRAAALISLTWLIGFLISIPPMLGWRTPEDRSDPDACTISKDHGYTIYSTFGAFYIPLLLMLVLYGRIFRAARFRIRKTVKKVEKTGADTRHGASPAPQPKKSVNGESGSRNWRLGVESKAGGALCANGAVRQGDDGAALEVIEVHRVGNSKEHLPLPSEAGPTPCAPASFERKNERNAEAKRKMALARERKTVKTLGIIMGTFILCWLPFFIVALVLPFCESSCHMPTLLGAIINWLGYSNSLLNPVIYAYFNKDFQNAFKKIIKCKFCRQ
The experiment in a line: 5HT1A receptor binding, [3H]8OHDPAT displacement. The following applies: read-out: IC50 (inhibition of [3H]-ligand binding) (converted). The method, then:
as §1, §2, §3, §4, §5, §6

For a further assay, the target named is T5, 5HT1B serotonin receptor (Rattus norvegicus, UniProt P28564).
T5 construct: Cell membrane fractions, prepared from tissue homogenates or cells; from tissue
T5 sequence (P28564 whole entry): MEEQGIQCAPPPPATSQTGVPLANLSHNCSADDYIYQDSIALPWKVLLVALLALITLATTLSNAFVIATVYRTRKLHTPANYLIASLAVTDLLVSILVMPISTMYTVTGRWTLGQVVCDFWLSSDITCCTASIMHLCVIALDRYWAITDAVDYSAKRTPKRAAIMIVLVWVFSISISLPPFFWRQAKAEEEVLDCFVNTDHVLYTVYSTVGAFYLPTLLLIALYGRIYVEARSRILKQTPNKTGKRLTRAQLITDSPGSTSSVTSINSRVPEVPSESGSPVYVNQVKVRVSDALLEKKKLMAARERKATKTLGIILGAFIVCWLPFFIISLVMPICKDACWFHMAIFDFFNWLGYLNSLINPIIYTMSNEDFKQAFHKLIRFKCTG
As to the kind of experiment: 5HT1B receptor binding, [3H]serotonin displacement. To be noted: read-out: IC50 (inhibition of [3H]-ligand binding) (converted). The procedure: as §1, §2, §3, §4, §5, §6

For a further assay, the target named is T6, 5HT2 serotonin receptor (Rattus norvegicus, UniProt P14842).
T6 construct: Cell membrane fractions, prepared from tissue homogenates or cells; from tissue
T6 sequence (P14842 whole entry): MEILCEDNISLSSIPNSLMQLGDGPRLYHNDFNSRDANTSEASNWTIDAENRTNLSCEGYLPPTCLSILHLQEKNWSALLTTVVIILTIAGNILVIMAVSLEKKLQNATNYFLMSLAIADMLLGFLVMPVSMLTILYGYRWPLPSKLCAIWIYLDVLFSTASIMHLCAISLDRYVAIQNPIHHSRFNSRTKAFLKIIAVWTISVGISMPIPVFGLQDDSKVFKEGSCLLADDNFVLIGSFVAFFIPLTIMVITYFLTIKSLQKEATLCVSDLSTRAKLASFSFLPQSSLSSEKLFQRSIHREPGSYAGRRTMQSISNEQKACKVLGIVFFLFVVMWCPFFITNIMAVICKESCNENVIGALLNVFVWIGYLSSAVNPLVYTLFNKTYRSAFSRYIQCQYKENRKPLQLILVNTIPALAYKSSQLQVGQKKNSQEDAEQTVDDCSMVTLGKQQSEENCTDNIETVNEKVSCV
The experiment in a line: 5HT2 receptor binding, [3H]ketanserin displacement. To be noted: read-out: IC50 (inhibition of [3H]-ligand binding) (converted). The procedure:
as §1, §2, §3, §4, §5, §6

T1 sequence (P61169 whole entry): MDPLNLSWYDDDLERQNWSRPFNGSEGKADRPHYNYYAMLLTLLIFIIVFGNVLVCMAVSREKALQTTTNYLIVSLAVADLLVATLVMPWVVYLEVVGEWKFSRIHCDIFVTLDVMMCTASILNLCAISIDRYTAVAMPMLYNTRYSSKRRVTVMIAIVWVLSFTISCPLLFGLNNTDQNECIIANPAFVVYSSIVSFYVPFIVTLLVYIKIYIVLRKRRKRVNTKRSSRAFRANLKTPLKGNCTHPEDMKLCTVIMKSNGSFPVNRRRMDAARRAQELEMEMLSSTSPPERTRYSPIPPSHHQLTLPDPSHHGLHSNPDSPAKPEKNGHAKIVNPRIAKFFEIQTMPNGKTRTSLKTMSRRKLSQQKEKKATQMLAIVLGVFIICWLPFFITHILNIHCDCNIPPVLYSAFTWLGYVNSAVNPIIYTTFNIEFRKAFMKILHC
T2 sequence (P31389 whole entry): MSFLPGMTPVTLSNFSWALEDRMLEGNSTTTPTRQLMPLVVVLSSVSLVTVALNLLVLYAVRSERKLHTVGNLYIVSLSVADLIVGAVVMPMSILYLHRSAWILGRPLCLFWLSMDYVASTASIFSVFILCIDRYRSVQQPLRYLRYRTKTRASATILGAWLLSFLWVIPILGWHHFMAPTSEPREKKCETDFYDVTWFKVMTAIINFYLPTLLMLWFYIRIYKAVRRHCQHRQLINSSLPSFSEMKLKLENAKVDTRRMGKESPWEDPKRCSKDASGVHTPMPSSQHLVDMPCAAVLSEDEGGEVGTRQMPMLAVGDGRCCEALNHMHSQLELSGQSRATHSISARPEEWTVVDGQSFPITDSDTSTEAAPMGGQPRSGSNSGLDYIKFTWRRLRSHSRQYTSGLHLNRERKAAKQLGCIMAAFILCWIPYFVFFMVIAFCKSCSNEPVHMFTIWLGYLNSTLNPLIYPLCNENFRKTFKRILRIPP

As for `COc1cc(N)c(I)cc1C(=O)NC1(C)CCN(CCCOc2ccc(F)cc2)CC1` [Compound 1, 4-amino-N-[1-[3-(4-fluorophenoxy)propyl]-4-methyl-4-piperidinyl]-5-iodo-2-methoxybenzamide], the IC50 is 27.5 nM on dopamine-D2 receptor; 6460 nM on histamine-H1 receptor; 0.27 nM in assay [1]; 4170 nM at 5HT3 serotonin receptor; 457 nM at 5HT1A serotonin receptor; 8910 nM on 5HT1B serotonin receptor. Further, the IC50 on 5HT2 serotonin receptor was 0.603 nM.

Consider `COc1cc(N)c(Cl)cc1C(=O)NC1(C)CCN(CCCOc2ccc(F)cc2)CC1` [Compound 2, 4-amino-5-chloro-N-[1-[3-(4-fluorophenoxy)propyl]-4-methyl-4-piperidinyl]-2-methoxybenzamide], for which the IC50 is 29.5 nM at dopamine-D2 receptor; 4570 nM on histamine-H1 receptor; 0.15 nM in assay [1]; 1700 nM on 5HT3 serotonin receptor; 661 nM on 5HT1A serotonin receptor; 6610 nM on 5HT1B serotonin receptor. Besides, the IC50 at 5HT2 serotonin receptor was 0.251 nM.

For `COc1cc(N)c(Br)cc1C(=O)NC1(C)CCN(CCCOc2ccc(F)cc2)CC1` [Compound 3, 4-amino-5-bromo-N-[1-[3-(4-fluorophenoxy)propyl]-4-methyl-4-piperidinyl]-2-methoxybenzamide], the IC50 is 47.9 nM on dopamine-D2 receptor; 10000 nM on histamine-H1 receptor; 1440 nM at 5HT3 serotonin receptor; 407 nM on 5HT1A serotonin receptor; 6610 nM at 5HT1B serotonin receptor; 0.661 nM on 5HT2 serotonin receptor.

As to `COc1cc(N)c(Cl)cc1C(=O)NC1(C)CCN(CCCOc2ccc(F)cc2Br)CC1` [Compound 4, 4-amino-N-[1-[3-(2-bromo-4-fluorophenoxy)propyl]-4-methyl-4-piperidinyl]-5-chloro-2-methoxybenzamide], the IC50 was 22.9 nM on dopamine-D2 receptor; 2880 nM on histamine-H1 receptor; 0.12 nM in assay [1]; 191 nM on 5HT3 serotonin receptor; 417 nM at 5HT1A serotonin receptor; 10000 nM on 5HT1B serotonin receptor. Further, the IC50 on 5HT2 serotonin receptor was 0.631 nM.

Turning to `COc1cc(N)ccc1C(=O)NC1(C)CCN(CCCOc2ccc(F)cc2)CC1` [Compound 5, 4-amino-N-[1-[3-(4-fluorophenoxy)propyl]-4-methyl-4-piperidinyl]-2-methoxybenzamide], the IC50 is 85.1 nM at dopamine-D2 receptor; 3720 nM at histamine-H1 receptor; 0.213 nM in assay [1]; > 10000 nM on 5HT3 serotonin receptor; 2240 nM at 5HT1A serotonin receptor; > 10000 nM at 5HT1B serotonin receptor. In addition, the IC50 on 5HT2 serotonin receptor was 0.178 nM.

In the case of `COc1cc(N=[N+]=[N-])c(I)cc1C(=O)NC1(C)CCN(CCCOc2ccc(F)cc2)CC1` [Compound 7, 4-azido-N-[1-[3-(4-fluorophenoxy)propyl]-4-methyl-4-piperidinyl]-5-iodo-2-methoxybenzamude hemihydrate], the IC50 is 66.1 nM on dopamine-D2 receptor; 7940 nM at histamine-H1 receptor; 10000 nM on 5HT3 serotonin receptor; 89.1 nM at 5HT1A serotonin receptor; 3240 nM at 5HT1B serotonin receptor; 7.41 nM at 5HT2 serotonin receptor.

With `COc1cc(N=[N+]=[N-])c(Br)cc1C(=O)NC1(C)CCN(CCCOc2ccc(F)cc2)CC1` [Compound 8, 4-azido-5-bromo-N-[1-[3-(4-fluorophenoxy)propyl]-4-methyl-4-piperidinyl]-2-methoxybenzamide], the IC50 is 63.1 nM on dopamine-D2 receptor; 8510 nM at histamine-H1 receptor; 8320 nM at 5HT3 serotonin receptor; 219 nM at 5HT1A serotonin receptor; 3310 nM at 5HT1B serotonin receptor; 3.55 nM on 5HT2 serotonin receptor.
